{"source": "patent US7037652B2", "about": "“Expression analysis of KIAA nucleic acids and polypeptides useful in the diagnosis and treatment of prostate cancer” (Wyeth, priority 2000, dated 2006)", "key": {"[1]": {"test_system": "PSA expression in LNCaP cells", "details": "10 nM DHT, FIG. 3A"}, "[2]": {"test_system": "KIAA 96 expression in LNCaP cells", "details": "10 nM DHT, 24 hours, FIG. 3C"}, "[3]": {"test_system": "LNCaP cells", "details": "MTT assay, FIG. 1A", "description": "Human prostatic cancer cell lines LNCaP, DU-145, PC-3, and Tsu-prl were obtained from ATCC. LNCaP cancer cells were maintained in humidified atmosphere of 5% CO2 in air in RPMI 1640 medium supplemented with 10% fetal calf serum (Life Technologies, Inc, Rockville, Md.), 3 mM L-glutamine, 100 μg/ml streptomycin and 100 units/ml penicillin. Other lines were maintained in DMEM containing 3 mM L-glutamine, 100 μg/ml streptomycin, 100 units/ml penicillin, and 10% FCS in humidified atmosphere of 5% CO2. To examine the effects of steroids, cells were cultured in RPMI 1640 medium containing 5% FCS treated with dextran coated charcoal (Hyclone, Logan, Utah) for 24 hs before treatment. Cells were grown in the absence or presence of 10 nM DHT for 0, 2, 4, 6, 12, 24, 48, and 72 hs. They were collected and frozen at each time point. Two hundred μl of medium were collected from each flask for PSA assay.\nTo verify the effect of DHT on the growth of LNCaP cells, cells at 3,000 cells/well were plated in 96-well plates for 24 hs before treatment with DHT. After 72 hs, MTT was added to each well and incubated at 37° C. for four hs. At the end of incubation, the supernatant was removed and 100 μl DMSO was added to each well to dissolve […]. Plates were subsequently read in a plate reader at […]."}, "[4]": {"test_system": "KIAA 18 expression in LNCaP cells", "details": "10 nM DHT"}, "[5]": {"test_system": "PSA production of LNCaP cells"}, "[6]": {"test_system": "Prostatic Acid Phosphatase (PAcP) in LNCaP", "details": "cited from earlier work"}}}
{"smiles": "C[C@]12CCC(=O)C[C@@H]1CC[C@@H]1[C@@H]2CC[C@]2(C)[C@@H](O)CC[C@@H]12", "note": "[DHT, dihydrotestosterone]", "values": [{"measurement": "PSA expression increase relative to control", "setting": "[1]; 12 hours", "result": 3, "unit": "fold"}, {"measurement": "PSA expression induction relative to control", "setting": "[1]; 72 hours", "result": "approximately 4 fold"}, {"measurement": "KIAA 96 expression down relative to baseline", "setting": "[2]", "result": 6, "unit": "fold"}, {"measurement": "growth of LNCaP cells", "setting": "[3]", "result": "stimulated"}, {"measurement": "time at which KIAA 18 induction began", "setting": "[4]", "result": 12, "unit": "h"}, {"measurement": "KIAA 18 over-expression relative to control", "setting": "[4]; 24 hours, FIG. 3B", "result": 2, "unit": "fold"}, {"measurement": "KIAA 18 induction relative to baseline", "setting": "[4]; 72 hours", "result": 3, "unit": "fold"}, {"measurement": "PSA production", "setting": "[5]", "result": "increased in a dose-dependent manner"}, {"measurement": "time at which PSA signal was first detected", "setting": "[5]", "result": 12, "unit": "h"}, {"measurement": "time of maximal PSA level", "setting": "[5]", "result": "about 48 hs"}, {"measurement": "PAcP expression", "setting": "[6]", "result": "suppressed"}]}
